Results reported in patent US20240368135A1 (VERTEX PHARMACEUTICALS INCORPORATED, priority 2021, published 2024).
Counter-ions that a name gives are not always drawn.

Target: human NaV 1.8 (Homo sapiens, UniProt Q9Y5Y9)
Assay: E-VIPR assay detecting and measuring NaV inhibition properties
Format: cell-based
Settings: HEK cells expressing truncated human NaV 1.8; no human serum; read-out: IC50 in the E-VIPR Assay
In short: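 Membrane potential was followed by coumarin/oxonol FRET during electrical field stimulation of matrigel-seeded HEK cells carrying truncated human NaV1.8 plus KIR2.1. Dosing used 11 points, 3-fold steps, top 300 nM final, 0.625% DMSO, with or without 25% human serum.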

Chain of human NaV 1.8 (Q9Y5Y9 126-399 limits assumed): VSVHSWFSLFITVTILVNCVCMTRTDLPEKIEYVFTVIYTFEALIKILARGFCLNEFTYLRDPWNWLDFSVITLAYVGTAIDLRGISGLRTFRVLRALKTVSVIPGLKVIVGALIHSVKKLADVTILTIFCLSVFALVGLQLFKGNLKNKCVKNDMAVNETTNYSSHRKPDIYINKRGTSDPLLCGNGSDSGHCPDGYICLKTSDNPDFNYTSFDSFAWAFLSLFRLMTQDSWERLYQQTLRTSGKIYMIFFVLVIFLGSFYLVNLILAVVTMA
Chain of human NaV 1.8 (Q9Y5Y9 660-890 limits assumed): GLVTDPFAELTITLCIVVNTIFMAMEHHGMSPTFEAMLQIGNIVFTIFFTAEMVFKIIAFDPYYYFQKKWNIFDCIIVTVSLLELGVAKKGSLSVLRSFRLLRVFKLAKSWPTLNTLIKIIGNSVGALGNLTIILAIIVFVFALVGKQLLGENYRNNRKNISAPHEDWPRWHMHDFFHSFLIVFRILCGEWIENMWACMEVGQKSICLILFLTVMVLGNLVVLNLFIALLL
Chain of human NaV 1.8 (Q9Y5Y9 1148-1722 limits assumed): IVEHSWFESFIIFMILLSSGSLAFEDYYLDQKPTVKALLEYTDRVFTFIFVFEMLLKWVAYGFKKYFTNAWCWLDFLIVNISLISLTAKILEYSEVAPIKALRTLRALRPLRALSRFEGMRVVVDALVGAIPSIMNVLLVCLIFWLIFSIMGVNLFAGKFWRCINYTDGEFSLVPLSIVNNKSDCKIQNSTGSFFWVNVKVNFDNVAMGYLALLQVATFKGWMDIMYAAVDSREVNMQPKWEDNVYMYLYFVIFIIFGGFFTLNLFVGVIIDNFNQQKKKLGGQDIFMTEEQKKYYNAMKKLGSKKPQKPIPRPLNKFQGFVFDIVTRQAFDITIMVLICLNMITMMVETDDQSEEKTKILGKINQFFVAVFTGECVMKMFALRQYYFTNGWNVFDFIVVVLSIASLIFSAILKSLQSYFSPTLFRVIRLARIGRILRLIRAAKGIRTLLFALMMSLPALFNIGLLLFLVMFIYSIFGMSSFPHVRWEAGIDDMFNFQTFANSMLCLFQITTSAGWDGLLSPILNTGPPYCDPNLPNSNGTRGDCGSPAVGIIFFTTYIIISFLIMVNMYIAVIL

Row | Compound | IC50
1 | C[C@H]1[C@@H](c2ccc(F)c(F)c2OCC2COC2)[C@H](C(=O)Nc2ccc(C(N)=O)nc2)O[C@@]1(C)C(F)(F)F [Compound 580, 5-((2R,3S,4S,5R)-3-(3,4-difluoro-2-(oxetan-3-ylmethoxy)phenyl)-4,5-dimethyl-5-(trifluoromethyl)tetrahydrofuran-2-carboxamido)picolinamide] | < 10 nM
2 | C[C@H]1[C@@H](c2ccc(F)c(F)c2OCC2COC2)[C@H](C(=O)Nc2ccc(C(C)(C)O)nc2)O[C@@]1(C)C(F)(F)F [Compound 581, (2R,3S,4S,5R)-3-(3,4-difluoro-2-(oxetan-3-ylmethoxy)phenyl)-N-(6-(2-hydroxypropan-2-yl)pyridin-3-yl)-4,5-dimethyl-5-(trifluoromethyl)tetrahydrofuran-2-carboxamide (TFA salt)] | 100 to 1000 nM
3 | COCCOc1c([C@H]2[C@H](C(=O)Nc3cnn(C(C)(C)CO)c3)O[C@@](C)(C(F)(F)F)[C@H]2C)ccc(F)c1F [Compound 582, (2R,3S,4S,5R)-3-(3,4-difluoro-2-(2-methoxyethoxy)phenyl)-N-(1-(1-hydroxy-2-methylpropan-2-yl)-1H-pyrazol-4-yl)-4,5-dimethyl-5-(trifluoromethyl)tetrahydrofuran-2-carboxamide] | 100 to 1000 nM
4 | COCCOc1c([C@H]2[C@H](C(=O)Nc3cnn(CC(C)(C)O)c3)O[C@@](C)(C(F)(F)F)[C@H]2C)ccc(F)c1F [Compound 583, (2R,3S,4S,5R)-3-(3,4-difluoro-2-(2-methoxyethoxy)phenyl)-N-(1-(2-hydroxy-2-methylpropyl)-1H-pyrazol-4-yl)-4,5-dimethyl-5-(trifluoromethyl)tetrahydrofuran-2-carboxamide] | 100 to 1000 nM
5 | COCCOc1c([C@H]2[C@H](C(=O)Nc3ccc(=O)n(C)c3)O[C@@](C)(C(F)(F)F)[C@H]2C)ccc(F)c1F [Compound 584, (2R,3S,4S,5R)-3-(3,4-difluoro-2-(2-methoxyethoxy)phenyl)-4,5-dimethyl-N-(1-methyl-6-oxo-1,6-dihydropyridin-3-yl)-5-(trifluoromethyl)tetrahydrofuran-2-carboxamide] | < 10 nM
6 | Cc1nn(C(F)F)cc1NC(=O)[C@@H]1O[C@@](C)(C(F)(F)F)[C@@H](C)[C@H]1c1ccc(F)c(F)c1OCCN1CCOCC1 [Compound 591, (2R,3S,4S,5R)-3-(3,4-difluoro-2-(2-morpholinoethoxy)phenyl)-N-(1-(difluoromethyl)-3-methyl-1H-pyrazol-4-yl)-4,5-dimethyl-5-(trifluoromethyl)tetrahydrofuran-2-carboxamide] | 10 to 100 nM
7 | C[C@H]1[C@@H](c2ccc(F)c(F)c2OCCN2CCOCC2)[C@H](C(=O)Nc2cc(C(N)=O)nn2C)O[C@@]1(C)C(F)(F)F [Compound 592, 5-((2R,3S,4S,5R)-3-(3,4-difluoro-2-(2-morpholinoethoxy)phenyl)-4,5-dimethyl-5-(trifluoromethyl)tetrahydrofuran-2-carboxamido)-1-methyl-1H-pyrazole-3-carboxamide] | 10 to 100 nM
8 | Cc1nn(C2COC2)cc1NC(=O)[C@@H]1O[C@@](C)(C(F)(F)F)[C@@H](C)[C@H]1c1ccc(F)c(F)c1OCCN1CCOCC1 [Compound 594, (2R,3S,4S,5R)-3-(3,4-difluoro-2-(2-morpholinoethoxy)phenyl)-4,5-dimethyl-N-(3-methyl-1-(oxetan-3-yl)-1H-pyrazol-4-yl)-5-(trifluoromethyl)tetrahydrofuran-2-carboxamide] | 100 to 1000 nM

Now from value to compound:

Row | IC50 | Compound
9 | < 10 nM | Cc1nn(C(F)F)cc1NC(=O)[C@@H]1O[C@@](C)(C(F)(F)F)[C@@H](C)[C@H]1c1ccc(F)c(F)c1OCC1COC1 [Compound 579, (2R,3S,4S,5R)-3-(3,4-difluoro-2-(oxetan-3-ylmethoxy)phenyl)-N-(1-(difluoromethyl)-3-methyl-1H-pyrazol-4-yl)-4,5-dimethyl-5-(trifluoromethyl)tetrahydrofuran-2-carboxamide]
10 | 10 to 100 nM | COCCOc1c([C@H]2[C@H](C(=O)Nc3ccnc(N4CCN(C)CC4=O)c3)O[C@@](C)(C(F)(F)F)[C@H]2C)ccc(F)c1F [Compound 585, (2R,3S,4S,5R)-3-(3,4-difluoro-2-(2-methoxyethoxy)phenyl)-4,5-dimethyl-N-(2-(4-methyl-2-oxopiperazin-1-yl)pyridin-4-yl)-5-(trifluoromethyl)tetrahydrofuran-2-carboxamide]
11 | 10 to 100 nM | Cc1nocc1NC(=O)[C@@H]1O[C@@](C)(C(F)(F)F)[C@@H](C)[C@H]1c1ccc(F)c(F)c1OCCN1CCOCC1 [Compound 586, (2R,3S,4S,5R)-3-(3,4-difluoro-2-(2-morpholinoethoxy)phenyl)-4,5-dimethyl-N-(3-methylisoxazol-4-yl)-5-(trifluoromethyl)tetrahydrofuran-2-carboxamide]
12 | 10 to 100 nM | C[C@H]1[C@@H](c2ccc(F)c(F)c2OCCN2CCOCC2)[C@H](C(=O)Nc2cccnc2)O[C@@]1(C)C(F)(F)F [Compound 587, (2R,3S,4S,5R)-3-(3,4-difluoro-2-(2-morpholinoethoxy)phenyl)-4,5-dimethyl-N-(pyridin-3-yl)-5-(trifluoromethyl)tetrahydrofuran-2-carboxamide]
13 | 10 to 100 nM | C[C@H]1[C@@H](c2ccc(F)c(F)c2OCCN2CCOCC2)[C@H](C(=O)Nc2ccn(C)c(=O)c2)O[C@@]1(C)C(F)(F)F [Compound 588, (2R,3S,4S,5R)-3-(3,4-difluoro-2-(2-morpholinoethoxy)phenyl)-4,5-dimethyl-N-(1-methyl-2-oxo-1,2-dihydropyridin-4-yl)-5-(trifluoromethyl)tetrahydrofuran-2-carboxamide]
14 | 10 to 100 nM | Cc1nn(C(N)=O)cc1NC(=O)[C@@H]1O[C@@](C)(C(F)(F)F)[C@@H](C)[C@H]1c1ccc(F)c(F)c1OCCN1CCOCC1 [Compound 593, 4-((2R,3S,4S,5R)-3-(3,4-difluoro-2-(2-morpholinoethoxy)phenyl)-4,5-dimethyl-5-(trifluoromethyl)tetrahydrofuran-2-carboxamido)-3-methyl-1H-pyrazole-1-carboxamide]
15 | 10 to 100 nM | COC[C@@H](O)Cc1cc(NC(=O)[C@@H]2O[C@@](C)(C(F)(F)F)[C@@H](C)[C@H]2c2ccc(F)c(F)c2OCCN2CCOCC2)ccn1 [Compound 596, (2R,3S,4S,5R)-3-(3,4-difluoro-2-(2-morpholinoethoxy)phenyl)-N-(2-((S)-2-hydroxy-3-methoxypropyl)pyridin-4-yl)-4,5-dimethyl-5-(trifluoromethyl)tetrahydrofuran-2-carboxamide]
16 | 10 to 100 nM | C[C@H]1[C@@H](c2ccc(F)c(F)c2OCCN2C[C@H]3COC[C@H]3C2)[C@H](C(=O)Nc2cc(C(N)=O)nn2C)O[C@@]1(C)C(F)(F)F [Compound 597, 5-[[(2R,3S,4S,5R)-3-[2-[2-[(3aS,6aR)-1,3,3a,4,6,6a-hexahydrofuro[3,4-c]pyrrol-5-yl]ethoxy]-3,4-difluoro-phenyl]-4,5-dimethyl-5-(trifluoromethyl)tetrahydrofuran-2-carbonyl]amino]-1-methyl-pyrazole-3-carboxamide]
17 | 10 to 100 nM | Cc1nn(C(F)F)cc1NC(=O)[C@@H]1O[C@@](C)(C(F)(F)F)[C@@H](C)[C@H]1c1ccc(F)c(F)c1OCCN1CC2(COC2)C1 [Compound 598, (2R,3S,4S,5R)-3-(2-(2-(2-oxa-6-azaspiro[3.3]heptan-6-yl)ethoxy)-3,4-difluorophenyl)-N-(1-(difluoromethyl)-3-methyl-1H-pyrazol-4-yl)-4,5-dimethyl-5-(trifluoromethyl)tetrahydrofuran-2-carboxamide]
